Counter-ions that a name gives are not always drawn. Numbered stars: 1 amine (or outer) side, 2 acyl side, 3 side chain; on linkers, the order of the positions; unused ones are H or OH. Bridge positions count the residues as written; N and C are the ends. Square brackets hold non-standard residues; d marks the D form. Peptide text beside a SMILES is read from it. I, II: the chains in the order shown. Actinocin(9to1) = Cc1c2oc3c(C)ccc(C(=O)[*:1])c3nc-2c(C(=O)[*:2])c(N)c1=O; NMeV = CN[C@H](C(=O)O)C(C)C; Sar = CNCC(=O)O
Tested on: U87-MG spheroids
Experiment: High throughput kinetic oxygen screen of FDA-approved anticancer drugs on U87-MG micro-tumors with embedded oxygen sensors, 384-well plate
Assay type: cell-based, human
Settings: 5 μM; U87-MG cells embedded in collagen gel or basement membrane gel
Protocol: In general, cells were kept under standard conditions in a humidified incubator at 37° C., under 5% CO2. U87-MG cells (obtained from the American Type Culture Collection (ATCC)) were cultured in Eagle's Minimum Essential Medium (EMEM) (ATCC® 30-2003™) supplemented with 15% (volume/volume) fetal bovine serum (FCS), 100 U/mL penicillin, and 100 μg/mL streptomycin (Sigma-Aldrich). Medium was changed every 2 days and cells were split every 5 days. Patient's specific glioblastoma derived cells (obtained from Cleveland clinic) were cultured in Neurobasal™ Medium (Trademark Serial number: 77137832) minus phenol red (Thermo-Fischer Scientific) supplemented with 1× (volume/volume) B27 minus Vitamin A (Thermo-Fischer Scientific), 10 ng/ml basic fibroblast growth factor (bFGF) 10 ng/ml EGF (epidermal growth factor) (PEPROTECH), 100 U/mL penicillin, 100 μg/mL streptomycin (Sigma-Aldrich) and L-Alanyl-L-Glutamine (Biological Industries). Medium was changed every 3 days and cells were split every 2-3 weeks. Rat retinal capillary endothelial cells (RCECs) were cultured in EGM™-2 Endothelial Cell Growth Medium-2 BulletKit™ (Lonza). Medium was changed every 3 days and cells were split every 6 days.
For tumor organoid formation, cancer cells were cultured to reach the adequate number needed for a 384 well plate. Cells were trypsinized, counted, and centrifuged at 300 g for 5 minutes at 4° C. The pellet was then mixed with 5 mg CPOx-50-RuP oxygen-sensing beads (Colibri Photonics) and resuspended in 800 μl of ice-cold solution of collagen type I (BD Biosciences) or Matrigel® Basement Membrane Matrix, Growth Factor Reduced (GFR) (Corning) for a final seeding density of 25-50×10^6 cells/mL. In some cases, endothelial cells (RCECs) are used in the assembly of the tumor spheroids by mixing them with same or double the number of tumor cells (i.e. 1:1 or 1:2 ratios) before centrifugation. The 800 μl mix was then equally distributed into a PCR strip (100 μl/tube) and passed to a Biomek i5 liquid handling workstation (Beckman Coulter) for the formation of uniformly-sized organoid in 384-well plate. The plate was then incubated for 30 minutes at 37° C., and the medium was replaced using the liquid handing workstation. Medium was changed every two days for 4 days before adding the drugs (5 μM of NIH chemotherapeutic drugs in triplicates per drug).
On the day of measurement, medium was changed 2-12 hours before drug induction, based on the oxygen consumption of the microtissue (e.g., U87-MG spheroids are given 6 hours after media change before drugs are induced).
After applying the drugs, the plate was placed on the DynamiX bioanalyzer (Tissue Dynamics). Organoids positions were detected optically. Oxygen content was monitored at a predetermined rate of 1 to 10 seconds of measurement at each location (e.g. Matrigel®/U87-MG spheroids treated with a set of FDA-approved anticancer drugs to enable cancer research was measured via phosphorescence for 4 seconds/well). Each cycle takes between 10-120 minutes, dependent on sampling rate and well number (e.g., Matrigel®/U87-MG spheroids 384 well at a sampling rate of 4 measurements/well take about 60 minutes for each cycle). […]
Further validation was usually done by multiple independent repeats (e.g. Matrigel®/U87-MG spheroids treated with a set of FDA-approved anticancer drugs to enable cancer research [AOD IX] were assessed in 3 independent experiments). […]

| SMILES | type of response in kinetic oxygen measurement (positive, false negative, false positive) |
| --- | --- |
| CC(C)C[C@H](NC(=O)[C@H](Cc1ccccc1)NC(=O)c1cnccn1)B(O)O [Bortezomib] | positive |
| Cc1c2oc3c(C)ccc(C(=O)N[C@@H]4C(=O)N[C@H](C(C)C)C(=O)N5CCC[C@H]5C(=O)N(C)CC(=O)N(C)[C@@H](C(C)C)C(=O)O[C@@H]4C)c3nc-2c(C(=O)N[C@@H]2C(=O)N[C@H](C(C)C)C(=O)N3CCC[C@H]3C(=O)N(C)CC(=O)N(C)[C@@H](C(C)C)C(=O)O[C@@H]2C)c(N)c1=O [Dactinomycin] (I: T[dV]P[Sar][NMeV] / II: T[dV]P[Sar][NMeV]; ester I:1-I:C, II:1-II:C; linker I:N-II:N via Actinocin(9to1)) | false positive |
| COc1cccc2c1C(=O)c1c(O)c3c(c(O)c1C2=O)C[C@@](O)(C(C)=O)C[C@@H]3O[C@H]1C[C@H](N)[C@H](O)[C@H](C)O1 [Daunorubicin hydrochloride] | false negative |
| Cc1c(C(=O)Nc2ccc(N3C[C@@H](C)O[C@@H](C)C3)nc2)cccc1-c1ccc(OC(F)(F)F)cc1 [Erismodegib] | false positive |
| COC(=O)C[C@](O)(CCCC(C)(C)O)C(=O)O[C@@H]1C(OC)=C[C@]23CCCN2CCc2cc4c(cc2[C@H]13)OCO4 [Omacetaxine mepesuccinate] | positive |

Source: patent publication US12631620B2, “Methods of generating organoids for high throughput screening of drugs” (Yissum Research Development Company of the Hebrew …, priority 2019, dated 2026)
